The subject of experiment [1] is osteoblastic cells and osteocytic cells. The experiment can be described thus: Anti-apoptotic effects of estrogens on osteoblastic and osteocytic cells in vitro. The format is cell-based.
A further experiment relates to ERK1/2. Briefly: ERK1/2 phosphorylation in MLO-Y4 cells by Western blot. The format is cell-based, murine. As to conditions: 50 μM PD98059 or 1 μM UO126 pretreatment; 10^−7 M bisphosphonate 2 min. The protocol: Monolayers were washed with cold 20 mM Tris-HCl (pH 7.5), 150 mM NaCl, 1 mM sodium orthovanadate and lysed in the lysis buffer mentioned above. Insoluble material was pelleted in a microcentrifuge at 14,000×rpm for 10 mn. […] Proteins (10 μg) were separated on 7.5% SDS-polyacrylamide gels and electrotransferred to a polyvinylidene difluoride membrane. Immunoblotting was performed using a mouse monoclonal antibody recognizing tyrosine phosphorylated ERK1/2, or a rabbit polyclonal antibody recognizing total ERK1/2, followed by incubation with either an antimouse or an antirabbit antibody conjugated with horseradish peroxidase. Blots were developed using Chemiluminescence according to the manufacturer's recommendations. Quantitation of the intensity of the bands in the autoradiograms was performed using a scanner (Microtek Lab., Redondo Beach, Calif.).

A further experiment relates to MLO-Y4 osteocytic cells. As to conditions: for effect on the prevention of MLO-Y4 cell apoptosis by sCT / effect on the anti-apoptotic effect of alendronate, IG-9402 and etidronate: inhibitor 30 min, 10^−6 M dexamethasone 6 h; for effect on the prevention of MLO-Y4 cell apoptosis by sCT: 5 ng/ml sCT 1 h; for effect on the anti-apoptotic effect of alendronate, IG-9402 and etidronate: 10^−7 M bisphosphonate 1 h; for inhibition of glucocorticoid-induced apoptosis: 1 h pretreatment, then dexamethasone 10^−6 M for 6 h; for percentage of cells stained with trypan blue (induction of apoptosis): MLO-Y4, 6 h, dexamethasone 10^−6 M, etoposide 50 μg/ml, TNF-α 1 nM. The protocol: The murine long bone-derived osteocytic cell line MLO-Y4 was provided by Dr. Lynda Bonewald (University of Texas Health Center at San Antonio, Tex.). Cells were cultured in phenol red-free αMEM supplemented with 5% FBS, 5% bovine calf serum, 100 U/ml penicillin and 100 μg/ml streptomycin. Cells were plated at 1-2×10^4 cells/cm^2 on collagen type I coated plates, as described previously (Kato, et al., 1997. J. Bone Miner. Res. 12:2014-2023). Murine calvaria cells were obtained from neonatal (3- to 6-day old) C57BL/6J mice by controlled digestion with collagenase, as previously described (Bellido, et al., 1997. Endocrinology 138:3666-3676). After isolation, cells were cultured in 10% FBS at 1-2×10^4 cells/cm^2 until 90-95% confluence. Subsequently, cells were harvested and frozen for later use. UMR-106-06 cells were cultured in phenol red-free MEM supplemented with 10% FBS, 1% non-essential aminoacids, 100 U/ml penicillin, and 100 μg/ml streptomycin (Sakagami, et al., Manolagas. 1993. J. Bone Miner. Res. 8:811-816).
Nonadherent cells were combined with adherent cells released from the culture dish using trypsin-EDTA, resuspended in medium containing serum, and collected by centrifugation. […] At least 100 cells per condition were counted.
(§1) MLO-Y4 osteocytic cells and calvaria osteoblastic cells were treated for 1 hour in the absence or presence of different BPs or sCT. Subsequently, dexamethasone, etoposide or TNF-α were added to obtain final concentrations of 10^−6 M, […], or 1 nM, respectively, and cells were incubated for additional 6 h. The effect of PD98059 (50 μM) or UO126 (1 μM) was evaluated by pretreating the cells with the inhibitors for 30 min before adding the BPs or sCT. In the experiment using the membrane permeable caspase inhibitor DEVD, cells were cultured for 1 hour with 50 nM DEVD-CHO and subsequently the pro-apoptotic agents were added to reach the final concentrations indicated above. […] At least 500 cells from fields selected by systematic random sampling were examined for each experimental condition. […] The TUNEL reaction was performed according to the manufacturer's instructions, using 0.15% CuSO4 for color enhancement. Negative controls were made by omitting the transferase from the reaction. Cells presenting brown nuclear staining were considered positive. More than 500 cells per condition were analyzed. Apoptosis of parental MLO-Y4 or calvaria cells was quantified by trypan blue staining (Jilka, et al., 1998. J. Bone Miner. Res. 13:793-802). Nonadherent cells were combined with adherent cells released from the culture dish using trypsin-EDTA, resuspended in medium containing serum, and collected by centrifugation. […] At least 100 cells per condition were counted.
MLO-Y4 cells were incubated for 1 h in vehicle or 50 nM DEVD-CHO. Subsequently, etoposide, TNF-α, or dexamethasone (Dex) were added at final concentrations of 50 μg/ml, 1 nM, or 10^−6 M, respectively, and cells were incubated for additional 6 h. Dead cells were enumerated by trypan blue uptake.
The percentage of dead cells was determined by trypan blue uptake, as in Methods and Materials. Bars represent the mean ±S.D. of three independent measurements.
Subsequently, etoposide, TNF-α, or dexarnethasone were added to reach final concentrations of 50 μg/ml, 1 nM, or 10^−6 M, respectively, and cells were cultured for 6 h, as in FIG. 1. The percentage of dead cells was determined by trypan blue uptake. Bars represent the mean ±S.D. of three independent measurements. Data were analyzed by two-way ANOVA.

The test system of experiment [2] is MLO-Y4 cells stably transduced with GFP. The experiment can be described thus: Apoptosis by nuclear morphology of MLO-Y4 cells transduced with nuclear GFP. The note with it: absence of dexamethasone; 10^−7 M. The format is cell-based, murine. The protocol: Supernatants containing retroviral particles were collected 24-48 h after transfection, and used immediately to infect cell cultures. […] Subsequently, cells were exposed to the supernatants containing the viral particles once more before being trypsinized and plated at low density.
Cells presenting brown nuclear staining were considered positive. More than 500 cells per condition were analyzed. […] At least 100 cells per condition were counted.

The next experiment has as its system osteoclast. The note with it: cited from earlier work.
Experiment [3] has as its system osteocyte and osteoblast apoptosis in murine vertebral cancellous bone. Briefly: Murine model of glucocorticoid excess: TUNEL in vertebral bone sections and spinal BMD by DEXA. As to conditions: prednisolone 2.1 mg/kg/day pellets, alendronate 0.75 mg/kg/d s.c., 56 days, mean ±SD. The format is in vivo, Male Swiss Webster mice. An excerpt:
To adjust for the difference in the metabolic rate in mice compared to that in humans, the daily glucocorticoid dose was divided by the metabolic weight, i.e. the weight in kg to the 3/4 power (Borchard, et al., 1992. Drug dosage in laboratory animals: a handbook. CRC Press, Inc., Boca Raton, Fla. 514 pp.; Kleiber, M. 1961. The fire of life: an introduction to animal energetics. New York). […] One control group received saline injections with placebo pellet implantation while another group received saline injections plus prednisolone pellets. Dual-energy X-ray absorptiometry (DEXA) was used to determine spinal bone mineral density (spinal BMD) at the end of the 56-day experiment, as previously described (Weinstein et al., 1998. J. Clin. Invest. 102:274-282).
Sections of vertebral bone (L1 to L5) were mounted on silane-coated glass slides (Scientific Device Lab, Inc., Des Plains, Ill.), deplasticized and incubated in 10 mM citrate buffer, pH 7.6, in a microwave oven at 98° C. for 5 minutes (Jilka, et al., 1998. J. Bone Miner. Res. 13:793-802). Slides were then incubated with 0.5% pepsin for 30 minutes at 37° C. Apoptotic cells were detected by the TUNEL reaction as described above using 0.15% CuSO4 for color enhancement of the diaminobenzidine in sections counterstained with 1% methyl green. The TUNEL reaction is noted within cell nuclei and the cells whose nuclei were clearly brown from the streptavidin-horse radish peroxidase conjugate instead of blue-green from the methyl green were interpreted as positive. Plastic-embledded sections of weaned rat mammary tissue were used as a positive control. Negative controls were made by omitting the transferase from the TUNEL reaction. Morphological changes characteristic of apoptosis were carefully examined to minimize ambiguity regarding the interpretation of results. […] Osteocytes were identified inside lacunae in mineralized bone (FIG. 11A). Osteoblasts were identified as cuboidal cells lining the osteoid-covered trabecular perimeter (FIG. 11B).

The test system of experiment [4] is osteoblastic cells derived from murine calvaria. Briefly: Apoptosis of osteoblastic cells derived from murine calvaria by trypan blue uptake. The format is cell-based. The note with it: etoposide 50 μg/ml, TNF-α, dexamethasone 10^−6 M; 6 h.
For a further experiment, the system named is osteocytic MLO-Y4 cells. The experiment can be described thus: TUNEL reaction in MLO-Y4 cells. The format is cell-based, murine. The note with it: 10^−7 M alendronate 1 h and/or 10^−6 M dexamethasone 6 h. The protocol:
as §1

Marks after values point to notes of the source that are not given here. Ends that are not written are not given here.

With `C[C@]12CC[C@@H]3c4ccc(O)cc4CC[C@H]3[C@@H]1CC[C@@H]2O` [17β-estradiol], the “anti-apoptotic effects on osteoblastic cells in vitro and osteocytic cells” value in experiment [1] is listed as “potent anti-apoptotic effects”.

On to `N#CC(=C(/N)Sc1ccccc1N)/C(C#N)=C(\N)Sc1ccccc1N` [U0126], for which, in the experiment on ERK1/2, the “effect on bisphosphonate-induced phosphorylation of ERKs” value is “abolished”. Moreover, in the experiment with MLO-Y4 osteocytic cells, the “effect on the prevention of MLO-Y4 cell apoptosis by sCT” value is listed as “abolished”; the “effect on the anti-apoptotic effect of alendronate, IG-9402 and etidronate” value was “abrogated the anti-apoptotic effect”.

Regarding `NCCC(O)(P(=O)(O)O)P(=O)(O)O` [pamidronate], the “proportion of cells exhibiting chromatin condensation and/or nuclear fragmentation versus untreated” value in experiment [2] is on record as “no significant differences”. Besides, the “inhibition of glucocorticoid-induced apoptosis” value with MLO-Y4 osteocytic cells is listed as “Comparable responses”.

`C[C@@]12CCC[C@H]1[C@@H]1CCc3cc(O)ccc3[C@H]1CC2` [estratriene-3-ol]: the “anti-apoptotic effects on osteoblastic cells in vitro and osteocytic cells” value in experiment [1] is “potent anti-apoptotic effects”.

Regarding `COc1cccc(-c2cc(=O)c3ccccc3o2)c1N` [PD98059], the “effect on bisphosphonate-induced phosphorylation of ERKs” value with ERK1/2 was “abolished”. In addition, in the experiment with MLO-Y4 osteocytic cells, the “effect on the prevention of MLO-Y4 cell apoptosis by sCT” value is listed as “abolished”; the “effect on the anti-apoptotic effect of alendronate, IG-9402 and etidronate” value is on record as “abrogated the anti-apoptotic effect”.

With `C[C@]12CC[C@@H]3c4ccc(O)cc4C[C@@H](CCCCCCCCC[S+]([O-])CCCC(F)(F)C(F)(F)F)[C@H]3[C@@H]1CC[C@@H]2O` (stereo partly drawn) [ICI 182780], the “effect on the anti-apoptotic effects of the estrogen compounds” value in experiment [1] was “diminished”.

As for `CN(C)CCC(O)(P(=O)(O)O)P(=O)(O)O` [olpadronate], in experiment [2], the “proportion of cells exhibiting chromatin condensation and/or nuclear fragmentation versus untreated” value is given as “no significant differences”. In addition, the “antiresorptive activity / effect on osteoclast” value in the experiment with osteoclast is “effective inhibitor of the osteoclast and of bone resorption”. Besides, in the experiment on MLO-Y4 osteocytic cells, the “inhibition of glucocorticoid-induced apoptosis” value is “Comparable responses”.

Take `C[C@]12C=CC(=O)C=C1CC[C@@H]1[C@@H]2[C@@H](O)C[C@@]2(C)[C@H]1CC[C@]2(O)C(=O)CO` [prednisolone]: the “Spinal BMD (% change)” value in experiment [3] (DEXA) was −12.48 ± 3.77 % change. Also, in experiment [3] (vertebral cancellous bone), the “Apoptotic osteoblasts (%)” value stood at 19.79 ± 5.17 % and the “Apoptotic osteocytes (%)” value is reported as 2.37 ± 0.87%.

In the case of `COc1cc([C@@H]2c3cc4c(cc3[C@@H](O[C@@H]3O[C@@H]5CO[C@@H](C)O[C@H]5[C@H](O)[C@H]3O)[C@H]3COC(=O)[C@H]23)OCO4)cc(OC)c1O` [etoposide], the “induction of apoptosis of osteoblastic cells” value in experiment [4] is “induced apoptosis”. The “percentage of cells stained with trypan blue (induction of apoptosis)” value in the experiment on MLO-Y4 osteocytic cells is recorded as “A similar effect was obtained”.

`C[C@]12CC[C@@H]3c4ccc(O)cc4CC[C@H]3[C@@H]1CC[C@H]2O` [17α-estradiol]: the “anti-apoptotic effects on osteoblastic cells in vitro and osteocytic cells” value in experiment [1] was “potent anti-apoptotic effects”.

Consider `C[C@@H]1C[C@H]2[C@@H]3CCC4=CC(=O)C=C[C@]4(C)[C@@]3(F)[C@@H](O)C[C@]2(C)[C@@]1(O)C(=O)CO` [dexamethasone], for which, in the experiment with osteocytic MLO-Y4 cells, the “% of TUNEL positive cells” value is 11.87* %, the “Number of TUNEL positive cells” value is recorded as 66 and the “number of TUNEL negative cells” value amounted to 490. Besides, the “concentrations giving pro-apoptotic effects” value in the experiment with MLO-Y4 osteocytic cells (MLO-Y4 cells) is on record as 10^−7-10^−5 M.

With “Asp-Glu-Val-Asp-aldehide (DEVD-aldehyde) [DEVD-CHO]”, the “prevention of the increase in cell membrane permeability detected by trypan blue” value in the experiment with MLO-Y4 osteocytic cells (50 nM DEVD-CHO 1 h before pro-apoptotic agents) was “prevented”.

B1: TNF-α: Recombinant murine TNF-α, an activator of death receptors (protein, UniProt P06804 80-235, looked up)
Tumor necrosis factor, …: LRSSSQNSSDKPVAHVVANHQVEEQLEWLSQRANALLANGMDLKDNQLVVPADGLYLVYSQVLFKGQGCPDYVLLTHTVSRFAISYQEKVNLLSAVKSPCPKDTPEGAELKPWYEPIYLGGVFQLEKGDQLSAEVNLPKYLDFAESGQVYFGVIAL
modifications: Tumor necrosis factor, soluble form
On to B1, for which the “induction of apoptosis of osteoblastic cells” value in experiment [4] was “induced apoptosis”. In the experiment with MLO-Y4 osteocytic cells, the “percentage of cells stained with trypan blue (induction of apoptosis)” value is listed as “A similar effect was obtained”.

The record behind these values is patent US6416737B1, “Increasing bone strength with selected bisphosphonates” (Board of Trustees of the University of Arkansas, priority 1998, dated 2002).
